The record followed here is US12486273B2 (Hoffmann-La Roche Inc., priority 2019, dated 2025).

Data set [1] can be described thus: Human microsomal stability assay. It is filed as in vitro ADME. Particulars: human liver microsomes, 1 μM test compound, 37° C., pH 7.4. As for the experimental part: Human Microsomal Stability Assay
Human liver microsomes (Cat. NO.: 452117, Corning, USA) were preincubated with test compound for 10 minutes at 37° C. in 100 mM potassium phosphate buffer, pH 7.4. The reactions were initiated by adding NADPH regenerating system. The final incubation mixtures contained 1 μM test compound, 0.5 mg/mL liver microsomal protein, 1 mM MgCl2, 1 mM NADP, 1 unit/mL isocitric dehydrogenase and 6 mM isocitric acid in 100 mM potassium phosphate buffer, pH 7.4. After incubation times of 0, 3, 6, 9, 15 and 30 minutes at 37° C., 300 μL of cold ACN (including internal standard) was added to 100 μL incubation mixture to terminate the reaction. Following precipitation and centrifugation, 100 μL supernatant will be taken out and added 300 μL water. The amount of compound remaining in the samples was determined by LC-MS/MS. Controls of no NADPH regenerating system at zero and 30 minutes were also prepared and analyzed. The results were categorized as: low (<7.0 mL/min/kg), medium (7.0-16.2 mL/min/kg) and high (16.2-23.2 mL/min/kg).
On the technique in general: Liver microsomes are vesicles of endoplasmic reticulum, rich in cytochrome P450 enzymes.

Another data set addresses human TLR9 (Homo sapiens (Human), UniProt Q9NR96). Kind of data set: HEK293-Blue-hTLR-9 cells assay. Format: cell-based. The following applies: HEK293-Blue-hTLR9 cells, ODN2006 stimulation, 20 hrs, SEAP reporter; read-out: HEK/hTLR9 IC50. The text has this: HEK293-Blue-hTLR-9 Cells Assay:
A stable HEK293-Blue-hTLR-9 cell line was purchased from InvivoGen (Cat. #: hkb-htlr9, San Diego, California, USA). These cells were originally designed for studying the stimulation of human TLR9 by monitoring the activation of NF-κB. A SEAP (secreted embryonic alkaline phosphatase) reporter gene was placed under the control of the IFN-β minimal promoter fused to five NF-κB and AP-1-binding sites. The SEAP was induced by activating NF-κB and AP-via stimulating HEK-Blue hTLR9 cells with TLR9 ligands. Therefore the reporter expression was declined by TLR9 antagonist under the stimulation of a ligand, such as ODN2006 (Cat. #: tlrl-2006-1, Invivogen, San Diego, California, USA), for incubation of 20 hrs. The cell culture supernatant SEAP reporter activity was determined using QUANTI-Blue™ kit (Cat. #: rep-qb1, Invivogen, San Diego, California, USA) at a wavelength of 640 nm, a detection medium that turns purple or blue in the presence of alkaline phosphatase.
(§1) HEK293-Blue-hTLR9 cells were incubated at a density of 250,000˜450,000 cells/mL in a volume of 170 μL in a 96-well plate in Dulbecco's Modified Eagle's medium (DMEM) containing 4.5 g/L glucose, 50 U/mL penicillin, […], […], 2 mM L-glutamine, 10% (v/v) heat-inactivated fetal bovine serum with addition of 20 μL test compound in a serial dilution in the presence of final DMSO at 1% and 10 μL of 20 μM ODN2006 in above DMEM, perform incubation under 37° C. in a CO2 incubator for 20 hrs. Then 20 μL of the supernatant from each well was incubated with 180 μL Quanti-blue substrate solution at 37° C. for 2 h and the absorbance was read at 620-655 nm using a spectrophotometer. The signaling pathway that TLR9 activation leads to downstream NF-κB activation has been widely accepted, and therefore similar reporter assay was modified for evaluating TLR9 antagonist.

A further data set concerns the target human TLR7 (Homo sapiens (Human), UniProt Q9NYK1). Kind of data set: HEK293-Blue-hTLR-7 cells assay. Particulars: HEK293-Blue-hTLR7 cells, R848 stimulation, 20 hrs, SEAP reporter; read-out: HEK/hTLR7 IC50. Format: cell-based.
Text: HEK293-BLUE-hTLR-7 CELLS ASSAY:
(§2) A stable HEK293-Blue-hTLR-7 cell line was purchased from InvivoGen (Cat. #: hkb-htlr7, San Diego, California, USA). These cells were originally designed for studying the stimulation of human TLR7 by monitoring the activation of NF-κB. A SEAP (secreted embryonic alkaline phosphatase) reporter gene was placed under the control of the IFN-β minimal promoter fused to five NF-κB and AP-1-binding sites. The SEAP was induced by activating NF-κB and AP-1 via stimulating HEK-Blue hTLR7 cells with TLR7 ligands. Therefore the reporter expression was declined by TLR7 antagonist under the stimulation of a ligand, such as R848 (Resiquimod), for incubation of 20 hrs. The cell culture supernatant SEAP reporter activity was determined using QUANTI-Blue™ kit (Cat. #: rep-qb1, Invivogen, San Diego, Ca, USA) at a wavelength of 640 nm, a detection medium that turns purple or blue in the presence of alkaline phosphatase.
as §1, with “HEK293-Blue-hTLR7 cells” for “HEK293-Blue-hTLR9 cells”, “μM R848” for “μM ODN2006”, “2 hrs” for “2 h”, “that TLR7” for “that TLR9”, “evaluating TLR7” for “evaluating TLR9”

Another data set has as its target human TLR8 (Homo sapiens (Human), UniProt Q9NR97). Kind of data set: HEK293-Blue-hTLR-8 cells assay. Format: cell-based. The following applies: HEK293-Blue-hTLR8 cells, R848 stimulation, 20 hrs, SEAP reporter; read-out: HEK/hTLR8 IC50.
Text: HEK293-Blue-hTLR-8 Cells Assay:
as §2, with “HEK293-Blue-hTLR-8” for “HEK293-Blue-hTLR-7”, “hkb-htlr8,” for “hkb-htlr7,”, “TLR8” for “TLR7”, “hTLR8” for “hTLR7”, “R848,” for “R848 (Resiquimod),”, “rep-Qb1,” for “rep-qb1,”
HEK293-Blue-hTLR8 cells were incubated at a density of 250,000-450,000 cells/mL in a volume of 170 μL in a 96-well plate in Dulbecco's Modified Eagle's medium (DMEM) containing 4.5 g/L glucose, 50 U/mL penicillin, […], […], 2 mM L-glutamine, 10% (v/v) heat-inactivated fetal bovine serum with addition of 20 μL test compound in a serial dilution in the presence of final DMSO at 1% and 10 μL of 60 μM R848 in above DMEM, perform incubation under 37° C. in a CO2 incubator for 20 hrs. Then 20 μL of the supernatant from each well was incubated with 180 μL Quanti-blue substrate solution at 37° C. for […] and the absorbance was read at 620˜655 nm using a spectrophotometer. The signaling pathway that TLR8 activation leads to downstream NF-κB activation has been widely accepted, and therefore similar reporter assay was modified for evaluating TLR8 antagonist.

human TLR8, sequence (Q9NR97 27-1041): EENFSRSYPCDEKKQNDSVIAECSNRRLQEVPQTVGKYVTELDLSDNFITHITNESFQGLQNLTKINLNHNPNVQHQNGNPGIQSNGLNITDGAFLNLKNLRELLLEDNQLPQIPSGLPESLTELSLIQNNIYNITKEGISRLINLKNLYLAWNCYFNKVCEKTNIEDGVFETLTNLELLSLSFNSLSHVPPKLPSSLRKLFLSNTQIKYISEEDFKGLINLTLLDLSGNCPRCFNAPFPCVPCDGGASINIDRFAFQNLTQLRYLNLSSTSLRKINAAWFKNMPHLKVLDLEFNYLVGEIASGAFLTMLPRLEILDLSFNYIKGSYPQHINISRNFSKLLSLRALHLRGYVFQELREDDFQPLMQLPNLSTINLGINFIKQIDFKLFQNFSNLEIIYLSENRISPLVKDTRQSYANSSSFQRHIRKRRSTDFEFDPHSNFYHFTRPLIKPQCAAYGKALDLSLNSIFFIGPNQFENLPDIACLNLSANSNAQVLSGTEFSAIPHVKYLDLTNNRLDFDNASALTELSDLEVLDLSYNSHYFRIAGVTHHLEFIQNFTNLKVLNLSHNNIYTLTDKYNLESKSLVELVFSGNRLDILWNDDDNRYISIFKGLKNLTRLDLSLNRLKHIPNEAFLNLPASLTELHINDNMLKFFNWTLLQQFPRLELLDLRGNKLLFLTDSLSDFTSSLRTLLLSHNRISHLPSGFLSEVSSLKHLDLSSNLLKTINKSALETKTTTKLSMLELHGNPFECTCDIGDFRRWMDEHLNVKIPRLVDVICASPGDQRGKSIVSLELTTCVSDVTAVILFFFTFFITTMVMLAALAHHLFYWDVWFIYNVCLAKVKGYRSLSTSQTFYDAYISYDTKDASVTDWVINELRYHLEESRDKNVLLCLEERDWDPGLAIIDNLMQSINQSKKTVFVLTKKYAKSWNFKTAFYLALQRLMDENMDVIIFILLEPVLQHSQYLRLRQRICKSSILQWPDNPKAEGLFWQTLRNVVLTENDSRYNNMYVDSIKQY
human TLR9, sequence (Q9NR96 26-1032): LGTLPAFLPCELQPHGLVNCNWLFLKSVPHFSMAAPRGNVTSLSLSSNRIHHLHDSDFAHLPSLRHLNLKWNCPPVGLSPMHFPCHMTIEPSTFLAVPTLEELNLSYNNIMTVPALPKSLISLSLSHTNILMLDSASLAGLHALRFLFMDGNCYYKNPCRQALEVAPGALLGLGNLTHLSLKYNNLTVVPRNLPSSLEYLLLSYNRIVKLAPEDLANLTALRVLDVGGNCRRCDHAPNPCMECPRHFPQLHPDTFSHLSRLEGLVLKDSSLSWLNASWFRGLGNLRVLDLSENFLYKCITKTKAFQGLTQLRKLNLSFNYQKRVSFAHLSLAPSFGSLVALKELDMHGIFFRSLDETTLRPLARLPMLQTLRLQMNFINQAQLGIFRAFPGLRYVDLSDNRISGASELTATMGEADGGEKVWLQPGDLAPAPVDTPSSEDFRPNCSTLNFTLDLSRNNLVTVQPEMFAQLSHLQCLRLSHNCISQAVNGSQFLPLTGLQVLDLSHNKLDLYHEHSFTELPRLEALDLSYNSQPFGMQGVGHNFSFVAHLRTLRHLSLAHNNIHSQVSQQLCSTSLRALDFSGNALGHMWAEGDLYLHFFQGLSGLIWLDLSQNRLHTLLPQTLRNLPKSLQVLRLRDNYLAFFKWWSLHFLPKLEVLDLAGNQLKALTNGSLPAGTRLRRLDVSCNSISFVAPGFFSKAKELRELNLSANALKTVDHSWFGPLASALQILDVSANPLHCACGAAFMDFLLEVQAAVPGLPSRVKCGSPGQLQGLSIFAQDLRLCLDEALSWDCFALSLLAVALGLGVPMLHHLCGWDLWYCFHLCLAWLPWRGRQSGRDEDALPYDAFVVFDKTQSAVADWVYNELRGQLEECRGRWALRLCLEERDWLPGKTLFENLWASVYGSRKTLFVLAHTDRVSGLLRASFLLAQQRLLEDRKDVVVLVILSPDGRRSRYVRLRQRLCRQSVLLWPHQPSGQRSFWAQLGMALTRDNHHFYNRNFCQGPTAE
human TLR7, sequence (Q9NYK1 27-1049): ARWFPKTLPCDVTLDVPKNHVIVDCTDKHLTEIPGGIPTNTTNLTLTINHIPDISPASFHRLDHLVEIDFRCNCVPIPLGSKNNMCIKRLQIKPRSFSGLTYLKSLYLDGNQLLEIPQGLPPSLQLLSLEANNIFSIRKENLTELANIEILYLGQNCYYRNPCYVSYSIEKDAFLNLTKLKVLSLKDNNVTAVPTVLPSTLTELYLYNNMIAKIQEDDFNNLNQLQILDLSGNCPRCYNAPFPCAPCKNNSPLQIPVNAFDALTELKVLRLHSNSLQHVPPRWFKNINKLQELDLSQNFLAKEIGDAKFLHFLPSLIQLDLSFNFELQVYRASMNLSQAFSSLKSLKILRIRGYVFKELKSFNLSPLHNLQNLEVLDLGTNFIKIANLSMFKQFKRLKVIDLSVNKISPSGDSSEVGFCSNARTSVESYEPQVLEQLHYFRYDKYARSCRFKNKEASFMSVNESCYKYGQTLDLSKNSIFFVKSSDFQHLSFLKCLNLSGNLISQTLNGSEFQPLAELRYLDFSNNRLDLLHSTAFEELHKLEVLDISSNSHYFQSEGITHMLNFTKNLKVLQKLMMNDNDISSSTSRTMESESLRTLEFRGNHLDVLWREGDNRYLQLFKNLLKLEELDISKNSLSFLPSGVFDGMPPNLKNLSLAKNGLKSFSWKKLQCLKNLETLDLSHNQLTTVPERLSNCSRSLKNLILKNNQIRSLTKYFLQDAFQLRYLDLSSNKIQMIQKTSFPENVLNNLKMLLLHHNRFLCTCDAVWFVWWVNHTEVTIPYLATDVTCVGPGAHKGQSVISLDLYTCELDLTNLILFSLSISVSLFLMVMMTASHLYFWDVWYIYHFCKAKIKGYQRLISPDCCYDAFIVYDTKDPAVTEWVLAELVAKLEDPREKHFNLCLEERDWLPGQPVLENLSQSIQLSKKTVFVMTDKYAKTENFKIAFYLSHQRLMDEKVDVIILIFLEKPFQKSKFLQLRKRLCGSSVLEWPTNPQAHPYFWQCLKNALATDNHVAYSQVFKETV

With `C[C@@H]1NCCc2cnc(N[C@@H]3C[C@H]4CN(c5ccc(C#N)c6ncccc56)C[C@@H](C)N4C3)cc21` [Example 9A, 5-[(4R,7R,8aS)-4-methyl-7-[[(5S)-5-methyl-5,6,7,8-tetrahydro-2,6-naphthyridin-3-yl]amino]-3,4,6,7,8,8a-hexahydro-1H-pyrrolo[1,2-a]pyrazin-2-yl]quinoline-8-carbonitrile], in data set [1], the “CL (h)” value is 8.4 mL/min/kg. The IC50 at human TLR9 came out at 65.7 nM; at human TLR7, 18.2 nM; on human TLR8 it was 8.6 nM.

For `C[C@@H]1CN(c2ccc(C#N)c3ncccc23)C[C@@H]2C[C@@H](Nc3cc4c(cn3)CCN[C@@H]4C)CN21` [Example 9B, 5-[(4R,7R,8aS)-4-methyl-7-[[(5R)-5-methyl-5,6,7,8-tetrahydro-2,6-naphthyridin-3-yl]amino]-3,4,6,7,8,8a-hexahydro-1H-pyrrolo[1,2-a]pyrazin-2-yl]quinoline-8-carbonitrile], the “CL (h)” value in data set [1] was 9.6 mL/min/kg. The IC50 at human TLR9 was 42.1 nM; at human TLR7 it was 13.3 nM; on human TLR8 it was 4.7 nM.

For the compound `C[C@@H]1CN(c2ccc(C#N)c3ncccc23)C[C@@H]2CC(Oc3ccc4c(n3)CCNC4)CN21` (stereo partly drawn) [Example 14, 5-[(4R,8aS)-4-methyl-7-(5,6,7,8-tetrahydro-1,6-naphthyridin-2-yloxy)-3,4,6,7,8,8a-hexahydro-1H-pyrrolo[1,2-a]pyrazin-2-yl]quinoline-8-carbonitrile], the IC50 on human TLR9 amounted to 247 nM; at human TLR7, 16.2 nM; at human TLR8 it was 4 nM.

Take `[2H]c1ccc2c(N3C[C@@H]4C[C@H](N5CC6CCC(C5)N6)CN4[C@H](C)C3)ccc(C#N)c2n1` [Example 16, 2-Deuterio-5-[(4R,7S,8aS)-7-(3,8-diazabicyclo[3.2.1]octan-3-yl)-4-methyl-3,4,6,7,8,8a-hexahydro-1H-pyrrolo[1,2-a]pyrazin-2-yl]quinoline-8-carbonitrile]: the “CL (h)” value in data set [1] was found to be 7.2 mL/min/kg. Moreover, the figures for the IC50 on human TLR9, at human TLR7 and at human TLR8 were 40.9 nM, 8.1 nM and 4.7 nM, respectively.

`[2H]c1ccc2c(N3C[C@@H]4C[C@H](N5CC(C)(N)C5)CN4[C@H](C)C3)ccc(C#N)c2n1` [Example 17, 5-[(4R,7S,8aS)-7-(3-amino-3-methyl-azetidin-1-yl)-4-methyl-3,4,6,7,8,8a-hexahydro-1H-pyrrolo[1,2-a]pyrazin-2-yl]-2-deuterio-quinoline-8-carbonitrile]: the IC50 on human TLR9 turned out to be 175 nM; at human TLR7 it was 11.3 nM; on human TLR8, 14.7 nM.

With `[2H]c1ccc2c(N3C[C@@H]4C[C@H](N5CCC(C)(N)CC5)CN4[C@H](C)C3)ccc(C#N)c2n1` [Example 18, 5-[(4R,7S,8aS)-7-(4-amino-4-methyl-1-piperidyl)-4-methyl-3,4,6,7,8,8a-hexahydro-1H-pyrrolo[1,2-a]pyrazin-2-yl]-2-deuterio-quinoline-8-carbonitrile], in data set [1], the “CL (h)” value is on record as 9.8 mL/min/kg. The IC50 on human TLR9 is 46.7 nM; on human TLR7 it was 16.4 nM; at human TLR8, 12.3 nM.

Take `[2H]c1ccc2c(N3C[C@@H]4C[C@H](N5CCC(C)(N)C5)CN4[C@H](C)C3)ccc(C#N)c2n1` (stereo partly drawn) [Example 19, 2-Deuterio-5-[(4R,7S,8aS)-7-(3-amino-3-methyl-pyrrolidin-1-yl)-4-methyl-3,4,6,7,8,8a-hexahydro-1H-pyrrolo[1,2-a]pyrazin-2-yl]quinoline-8-carbonitrile]: the “CL (h)” value in data set [1] is listed as 8.6 mL/min/kg. Besides, the figures for the IC50 on human TLR9, on human TLR7 and at human TLR8 were 210 nM, 19.9 nM and 8.9 nM, respectively.

Turning to `[2H]c1ccc2c(N3C[C@@H]4C[C@H](N5CCC6(CCCNC6)CC5)CN4[C@H](C)C3)ccc(C#N)c2n1` [Example 21, 2-Deuterio-5-[(4R,7S,8aS)-7-(2,9-diazaspiro[5.5]undecan-9-yl)-4-methyl-3,4,6,7,8,8a-hexahydro-1H-pyrrolo[1,2-a]pyrazin-2-yl]quinoline-8-carbonitrile], the results for the IC50 on human TLR9, on human TLR7 and on human TLR8 were 45.1 nM, 30.4 nM and 10.3 nM, respectively.

Turning to `[2H]c1ccc2c(N3C[C@@H]4C[C@H](N5CC(n6ncc7c6CN[C@H](C)C7)C5)CN4[C@H](C)C3)ccc(C#N)c2n1` [Example 22A, 5-[(4R,7S,8aS)-4-methyl-7-[3-[(5R)-5-methyl-4,5,6,7-tetrahydropyrazolo[3,4-c]pyridin-1-yl]azetidin-1-yl]-3,4,6,7,8,8a-hexahydro-1H-pyrrolo[1,2-a]pyrazin-2-yl]-2-deuterio-quinoline-8-carbonitrile], the “CL (h)” value in data set [1] is given as 8.2 mL/min/kg. Also, the IC50 on human TLR9 was 32.1 nM; at human TLR7, 10.3 nM; on human TLR8, 14.5 nM.
